In this assay the target is T1, human GPR40 (Homo sapiens, UniProt O14842).
T1 construct: expressed in transfected cells
Kind of assay: Ca2+ mobilization (FLIPR) in a stable GPR40-expressing cell; GPR40 agonist activity. In kind it is cell-based. The following applies: compound concentration corresponding to 50% PosiC, 100% = intracellular calcium level induced by 80 μM palmitic acid. As to the method:
Evaluation of effect of test compounds on Ca^2+ mobilization by using a stable GPR40-expressing cell A stable human GPR40-expressing HEK293 cell was used. A cell suspension was prepared such that the above-mentioned cells were present at 6×10^5 cells/mL in a cell culture medium (D-MEM (Nikken Bio Medical Laboratory) supplemented with 10% (v/v) fetal bovine serum (Biowest) and 1% (v/v) penicillin-streptomycin solution (Invitrogen)). The cell suspension was plated in a 384-well plate (poly-D-lysine coated plate; Falcon) in a volume of 25 μl/well, and the plate was incubated at 37° C. in an atmosphere of 5% CO2 overnight. Each test compound was added to the cell at each concentration as below, and then the change in intracellular calcium level was measured by FLIPR^TETRA (Molecular Devices). Before the FLIPR assay, the following preparative solutions were prepared. First, an assay buffer was prepared for use in the preparation of a fluorescent dye solution and a diluent buffer solution. The assay buffer was prepared by adding 1M HEPES solution (Invitrogen) to Hanks' Balanced Salt Solution (Invitrogen), followed by adjusting the pH to 7.4 with 1M NaOH (Nacalai Tesque). Next, the fluorescent dye solution and the diluent buffer solution were prepared. The fluorescent dye solution was prepared in accordance with the instruction manual attached to Fluo-4NW calcium assay kit (Invitrogen), followed by addition of bovine serum albumin (Sigma) to a final concentration of 0.1% (w/v). The diluent buffer solution was prepared by adding bovine serum albumin (Sigma) to the assay buffer to give a final concentration of 0.1% (w/v). After removing a medium supernatant from the cell culture plate incubated overnight, the fluorescent dye solution was added to the plate in a volume of 25 μl/well. The plate was incubated at 37° C. in an atmosphere of 5% CO2 for 90 minutes to promote the fluorescent dye uptake in the cell. Meanwhile, the test compounds (i.e., the compounds prepared in Examples) dissolved in dimethyl sulfoxide (DMSO; Nacalai Tesque) were diluted with the diluent buffer solution, to prepare each compound solution at each concentration. In addition, a palmitic acid solution was prepared as a positive control solution (hereinafter abbreviated as PosiC). A 40 μl aliquot of each sample solution prepared as above was added to each well of a 384-well polypropylene plate to prepare a compound plate. Finally, after the sufficient uptake of the fluorescent dye in the cell, the cell plate and the compound plate were set to FLIPR^TETRA. After the above pretreatment, the change in intracellular calcium level was measured by FLIPR^TETRA upon addition of 25 μl of each test compound solution at each concentration. The GPR40 agonist activity of each test compound at each concentration was determined as a relative activity level (% PosiC) with the intracellular calcium level induced by 80 μM palmitic acid (a GPR40 agonist) set to 100%. Next, each compound concentration corresponding to 50% PosiC was calculated based on the % PosiC value, to compare between agonist activities of the test compounds. In the tables, “++++” indicates 0.01 μM or more but less than 0.1 μM, “+++” indicates 0.1 μM or more but less than 1 μM, “++” indicates 1 μM or more but less than 10 μM, and “+” indicates 10 μM or more for 50% posiC value. In the tables, “N.T.” indicates “not tested”.

The EC50 is the concentration at which the effect is half-maximal.

Structures are written as SMILES. Structures can show the parent of a compound that is named as a salt. Where only a bound is given, the exact number is not on record here.

T1 sequence (O14842 whole entry): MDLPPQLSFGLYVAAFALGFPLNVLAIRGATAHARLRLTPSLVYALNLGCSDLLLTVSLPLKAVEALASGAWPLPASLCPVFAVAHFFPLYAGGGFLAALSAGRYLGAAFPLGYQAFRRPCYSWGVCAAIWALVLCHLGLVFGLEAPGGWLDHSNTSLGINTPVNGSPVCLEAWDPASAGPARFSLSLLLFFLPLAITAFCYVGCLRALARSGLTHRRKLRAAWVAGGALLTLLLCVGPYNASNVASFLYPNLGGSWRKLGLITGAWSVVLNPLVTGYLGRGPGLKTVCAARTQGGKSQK

Regarding `O=C(O)CCc1ccc(OC2CCCC3(CCCCC3)C2)cc1` (racemic) [Example 61, 3-[4-(spiro[5.5]undec-2-yloxy)-phenyl]-propionic acid], the EC50 was at least 10 µM.

With `O=C(O)CCc1ccc(OCC2CCC3(CCCCC3)C2)cc1` (racemic) [Example 52, 3-[4-(spiro[4.5]dec-2-ylmethoxy)-phenyl]-propionic acid], the concentration for a half-maximal effect (EC50) lay within 1 to 10 µM.

For `CC#C[C@@H](CC(=O)O)c1ccc(OCC2=CC3(CCCCC3)CCC2)cc1` [Example 9, (S)-3-[4-(spiro[5.5]undec-1-en-2-ylmethoxy)-phenyl]-hex-4-ynoic acid], the EC50 lay in the range of 0.1 to 1 µM.

For `CC#C[C@@H](CC(=O)O)c1ccc(OCC2CCCC3(CCCCC3)C2O)cc1` (mixture of isomers) [Example 70, (3S)-3-[4-(1-hydroxy-spiro[5.5]undec-2-ylmethoxy)-phenyl]-hex-4-ynoic acid], the EC50 is 0.1 to 1 µM.

In the case of `CC#C[C@@H](CC(=O)O)c1ccc(OCC2=CCCC3(CCCCCC3)C2)cc1` [Example 4, (S)-3-[4-(spiro[5.6]dodec-2-en-2-ylmethoxy)-phenyl]-hex-4-ynoic acid sodium salt], the EC50 was 0.01 to 0.1 µM.

Regarding `CCOC(CC(=O)O)c1ccc(OCC2=CC3(CCCCC3)CCC2)cc1` (single isomer, unassigned; (+)) [Example 44, (+)-3-ethoxy-3-[4-(spiro[5.5]undec-1-en-2-ylmethoxy)-phenyl]-propionic acid], the EC50 was 1 to 10 µM.

Take `CC#C[C@@H](CC(=O)O)c1ccc(OCC2=C[C@]3(CCC2)CC[C@H](O)C3)cc1` [Example 107, (3S)-3-[4-((2S,5R)-2-hydroxy-spiro[4.5]dec-6-en-7-ylmethoxy)-phenyl]-hex-4-ynoic acid sodium salt]: the EC50 was 0.1 to 1 µM.

Consider `CC1(C)C=CC2(CCCC(COc3ccc(CCC(=O)O)cc3)C2)CC1` (racemic) [Example 53, 3-[4-(9,9-dimethyl-spiro[5.5]undec-7-en-2-ylmethoxy)-phenyl]-propionic acid], for which the EC50 lay in the range of 1 to 10 µM.

As for `CC(C)OC(CC(=O)O)c1ccc(OCC2CCCC3(CCCCC3)C2)cc1` (racemic) [Example 81, 3-isopropoxy-3-[4-(spiro[5.5]undec-2-ylmethoxy)-phenyl]-propionic acid], the EC50 lay within 0.1 to 1 µM.

Regarding `O=C(O)CCc1ccc(OCC2CCCC3(CCCC3)C2)nc1` (racemic) [Example 113, 3-[6-(spiro[4.5]dec-7-ylmethoxy)-pyridin-3-yl]-propionic acid hydrochloride], the EC50 was in the range of 1 to 10 µM.

As to `Cc1cc(OCC2=CC3(CCCC3)CCC2)ccc1CCC(=O)O` [Example 109, 3-[2-methyl-4-(spiro[4.5]dec-6-en-7-ylmethoxy)-phenyl]-propionic acid], the EC50 is 1 to 10 µM.

Regarding `CC#CC(CC(=O)O)c1ccc(COC2CCCC3(CCCCC3)C2)cc1` (racemic) [Example 82, 3-[4-(spiro[5.5]undec-2-yloxymethyl)-phenyl]-hex-4-ynoic acid], the EC50 lay within 1 to 10 µM.

With `CCC#CC(CC(=O)O)c1ccc(OCC2CCCC3(CCCCC3)C2)cc1` (racemic) [Example 84, 3-[4-(spiro[5.5]undec-2-ylmethoxy)-phenyl]-hept-4-ynoic acid], the EC50 lay within 1 to 10 µM.

As for `CC#C[C@@H](CC(=O)O)c1ccc(OCC2CCC3(CCC3)C2)cc1` (mixture of isomers) [Example 118, (3S)-3-[4-(spiro[3.4]oct-6-ylmethoxy)-phenyl]-hex-4-ynoic acid], the EC50 was in the range of 0.1 to 1 µM.

As to `CC1=CCCC(C)C12CCCC(COc1ccc(CCC(=O)O)cc1)C2` (racemic) [Example 50, 3-[4-(7,11-dimethyl-spiro[5.5]undec-7-en-2-ylmethoxy)-phenyl]-propionic acid], the EC50 was in the range of 0.1 to 1 µM.

With `CC#C[C@@H](CC(=O)O)c1ccc(OCC2CCCC3(CCCC3)C2)cc1` (single isomer, unassigned) [Example 39], the EC50 lay in the range of 0.1 to 1 µM.

Turning to `CC#C[C@@H](CC(=O)O)c1ccc(OCC2=CCCC3(CCCCC3)C2)cc1` [Example 119, (S)-3-[4-(spiro[5.5]undec-2-en-2-ylmethoxy)-phenyl]-hex-4-ynoic acid L-lysine salt], the EC50 was in the range of 0.1 to 1 µM.

For the molecule `CC#C[C@@H](CC(=O)O)c1ccc(OCC2CCCC3(C=CCCC3(C)C)C2)cc1` (mixture of isomers) [Example 19, (3S)-3-[4-(11,11-dimethyl-spiro[5.5]undec-7-en-2-ylmethoxy)-phenyl]-hex-4-ynoic acid], the concentration giving a half-maximal response (EC50) was 0.01 to 0.1 µM.

Regarding `CC#C[C@@H](CC(=O)O)c1ccc(OCC2CCC3(CCCC3)C2)cc1` (mixture of isomers) [Example 30, (3S)-3-[4-(spiro[4.4]non-2-ylmethoxy)-phenyl]-hex-4-ynoic acid], the EC50 was 0.1 to 1 µM.

`C/C=C\[C@@H](CC(=O)O)c1ccc(OCC2CCCC3(CCCCC3)C2)cc1` (mixture of isomers) [Example 77, (Z)-(3R)-3-[4-(spiro[5.5]undec-2-ylmethoxy)-phenyl]-hex-4-enoic acid]: the EC50 lay within 0.1 to 1 µM.

`CC#C[C@@H](CC(=O)O)c1ccc(OCC2CCCCC3(CC3)C2)cc1` (mixture of isomers) [Example 116, (3S)-3-[4-(spiro[2.6]non-5-ylmethoxy)-phenyl]-hex-4-ynoic acid]: the EC50 lay in the range of 1 to 10 µM.

On to `CC1(C)CCC2(CCCC(COc3ccc(CCC(=O)O)cc3)C2)CC1` (racemic) [Example 54, 3-[4-(9,9-dimethyl-spiro[5.5]undec-2-ylmethoxy)-phenyl]-propionic acid], for which the EC50 was 1 to 10 µM.

Regarding `CC1(C)CCCC2(CCCC(COc3ccc(CCC(=O)O)cc3)C2)C1` (racemic) [Example 48, 3-[4-(8,8-dimethyl-spiro[5.5]undec-2-ylmethoxy)-phenyl]-propionic acid], the EC50 is 1 to 10 µM.

Turning to `CC#C[C@@H](CC(=O)O)c1ccc(OCC2=CCC3(CCCC3)C2)cc1` [Example 11, (S)-3-[4-(spiro[4.4]non-2-en-2-ylmethoxy)-phenyl]-hex-4-ynoic acid], the EC50 was 0.1 to 1 µM.

`O=C(O)CCc1ccc(OCC2CCC3(CCCCC3)CC2)cc1` [Example 57, 3-[4-(spiro[5.5]undec-3-ylmethoxy)-phenyl]-propionic acid]: the EC50 was 1 to 10 µM.

Turning to `CC#C[C@@H](CC(=O)O)c1ccc(OCC2CCCC3(CCCCC3)C2)cc1` (single isomer, unassigned) [Example 32], the EC50 lay within 0.1 to 1 µM.

With `CC#C[C@@H](CC(=O)O)c1ccc(OCC2=C[C@@]3(CCC2)CC[C@H](O)C3)cc1` [Example 99, (3S)-3-[4-((2S,5S)-2-hydroxy-spiro[4.5]dec-6-en-7-ylmethoxy)-phenyl]-hex-4-ynoic acid sodium salt], the 50% effective concentration (EC50) lay in the range of 1 to 10 µM.

With `CC1(C)CCC=CC12CCCC(COc1ccc(CCC(=O)O)cc1)C2` (racemic) [Example 55, 3-[4-(11,11-dimethyl-spiro[5.5]undec-7-en-2-ylmethoxy)-phenyl]-propionic acid], the EC50 fell in the range of 0.1 to 1 µM.

Turning to `CCOC(CC(=O)O)c1ccc(OCC2CCCC3(CCCCC3)C2)cc1` (racemic) [Example 75, 3-ethoxy-3-[4-(spiro[5.5]undec-2-ylmethoxy)-phenyl]-propionic acid], the EC50 lay in the range of 0.1 to 1 µM.

In the case of `CC#C[C@@H](CC(=O)O)c1ccc(OCC2=CC3(CCCC3)CC2)cc1` [Example 17, (S)-3-[4-(spiro[4.4]non-1-en-2-ylmethoxy)-phenyl]-hex-4-ynoic acid], the concentration giving a half-maximal response (EC50) fell in the range of 0.1 to 1 µM.

In the case of `COCC(CC(=O)O)c1ccc(OCC2CCCC3(CCCCC3)C2)cc1` (racemic) [Example 71, 4-methoxy-3-[4-(spiro[5.5]undec-2-ylmethoxy)-phenyl]-butyric acid], the EC50 lay within 1 to 10 µM.

As to `CC#C[C@@H](CC(=O)O)c1ccc(OCC2=CCC3(CCCC3)CC2)cc1` [Example 25, (S)-3-[4-(spiro[4.5]dec-7-en-8-ylmethoxy)-phenyl]-hex-4-ynoic acid], the EC50 is 0.1 to 1 µM.

On to `CC#C[C@@H](CC(=O)O)c1ccc(OCC2=C[C@]3(CCC2)CCC(=O)C3)cc1` [Example 103, (3S)-3-[4-((5R)-2-oxo-spiro[4.5]dec-6-en-7-ylmethoxy)-phenyl]-hex-4-ynoic acid sodium salt], for which the EC50 is 0.1 to 1 µM.

For the origin of these results see patent publication US8299296B2, “Spiro compounds and pharmaceutical use thereof” (Japan Tobacco Inc., priority 2007, dated 2012).
